Data taken from US10562869B2, “Oxadiazole compounds” (REMYND NV, priority 2014, dated 2020).

tested on: M17_3SYN cells; test: Paraquat-induced cytotoxicity (LDH) in α-synuclein over-expressing M17_3SYN neuroblastoma cells; format: cell-based, human; details: Homo sapiens, Neuroblastoma cell, 48 h, toxicity inhibition (LDH) in M17_3SYN cells challenged with 6 mM paraquat, 2 days; read-out: SYN EC50
Source text: A α-synuclein expression plasmid was constructed by subcloning the NcoI/XhoI fragment from 212T-SYN(WT) (Griffioen et al., Biochem Biophys Acta (2006) 1762(3):312-318) containing the cDNA of human wild type α-synuclein correspondingly into a standard mammalian expression vector pcDNA3.1 resulting in plasmid pcDNA3.1-SYNwt. Plasmids pcDNA3.1 and pcDNA3.1-SYNwt were transfected into human neuroblastoma cells (BE-M17; ATCC No. CRL-2267™) using lipofectamine reagent and subsequently, independent clonal cell lines with the plasmids stably integrated into the genome were selected by antibiotic resistance selection (Geneticin (G418)), resulting in cell lines M17.pcDNA3 and M17_3SYN. Overexpression of α-synuclein in the M17_3SYN cell line was confirmed by Western blot analysis.
Due to the high levels of α-synuclein, M17_3SYN cells were sensitive to paraquat, a well-known risk factor Parkinson's disease and of synuclein-dependent neuronal degeneration. Cytotoxicity of cells was measured by quantification of lactate dehydrogenase (LDH) levels. In dead cells, LDH leaked out of the cells into the medium due to a loss of plasma-membrane integrity.
[…], primary pre-cultures of M17.pcDNA3 (as possible control) and M17_3SYN cells were prepared, starting from a stock culture, at a density of 20.000-40.000 cells/cm2 in culture medium (Opti-MEM® Reduced Serum Medium with Phenol Red (Invitrogen, Cat. 31985-047) supplemented with 10% FCS, 1 mM sodium pyruvate, 1×NEAA, 500 μg/ml G418 and 0.5×antibiotic/antimycotic (ABAM)). 3 days later these primary pre-cultures were used as a starting point to make secondary pre-cultures at a density of 50.000-100.000 cells/cm^2. At the day of the experiment these secondary precultures were diluted to ˜0.5·10^6 cells/ml in detection medium (Opti-MEM® Reduced-Serum Medium without Phenol Red (Invitrogen, Cat. 11085-021) supplemented with 10% FCS, 1 mM sodium pyruvate, 1×NEAA, 500 μg/ml G418 and 0.5×ABAM) and 60 μL of this suspension was dispensed per well into a 96-well microtiter plate. After 3 hours of incubation at 37° C./5% CO2 an equal volume of detection medium containing a final concentration of 6 mM Paraquat was added and subsequently incubated for 2 days at 37° C./5% CO2. Then LDH activity was determined using the Promega Cytotox 96 Non-Radioactive cytotoxicity assay (Promega, Cat. G1780), according to the manufacturer's instructions. Cytotoxicity was defined as the ratio of LDH relative to the total LDH in the cells and supernatant.
The assay described above using the M17_3SYN cell line allowed screening compounds for their ability to decrease cytotoxicity in PQ-challenged cells. Compounds of the invention were tested for their ability to decrease toxicity at different concentrations, ranging from low non-effective concentrations to high effective concentrations. Afterwards, a dose-dependent inhibition curve was used to calculate the EC50. A compound was considered to be active in this test when it inhibited toxicity by more than 20% relative to untreated M17_3SYN cells at a concentration of 10 μM or lower.

`COc1ccc(S(=O)(=O)N2CCN(c3nc(COc4ccc(Cl)cc4)no3)CC2)cc1` [Cmpd200, 3-((4-Chlorophenoxy)methyl)-5-(4-((4-methoxyphenyl)sulfonyl)piperazin-1-yl)-1,2,4-oxadiazole] and `O=S(=O)(c1ccc(OC(F)F)cc1)N1CCN(c2nc(Cc3ccc(Cl)cc3)no2)CC1` [Cmpd054, 1-[3-(4-Chloro-benzyl)-[1,2,4]oxadiazol-5-yl]-4-(4-difluoromethoxy-benzenesulfonyl)-piperazine] are within 1.5-fold of each other in EC50: 0.022 µM for the first, 0.019 µM for the second.

Compared with `CCOc1ccc(S(=O)(=O)N2CCN(c3nc(Cc4cccc(F)c4)no3)CC2)cc1` [Cmpd091, 1-(4-Ethoxy-benzenesulfonyl)-4-[3-(3-fluoro-benzyl)-[1,2,4]oxadiazol-5-yl]-piperazine], `COc1ccc(S(=O)(=O)N2CCN(c3nc(Cc4cccc(F)c4)no3)CC2)cc1` [Cmpd084, 1-[3-(3-Fluoro-benzyl)-[1,2,4]oxadiazol-5-yl]-4-(4-methoxy-benzenesulfonyl)-piperazine] is 11-fold lower in EC50: 0.057 µM for the first, 0.005 µM for the second. The second is the more potent here.

Compared with `CC[C@@H](c1ccccc1)c1noc(N2CCN(S(=O)(=O)c3ccc(OC)cc3)CC2)n1` [Cmpd050, 1-(4-Methoxy-benzenesulfonyl)-4-[3-((S)-1-phenyl-propyl)-[1,2,4]oxadiazol-5-yl]-piperazine], `CCC(c1ccccc1)c1noc(N2CCN(S(=O)(=O)c3ccc(OC)cc3)CC2)n1` (stereo not shown) [Cmpd044, 5-(4-((4-Methoxyphenyl)sulfonyl)piperazin-1-yl)-3-(1-phenylpropyl)-1,2,4-oxadiazole] is 4.5-fold lower in EC50: 0.068 µM for the first, 0.015 µM for the second. The second is the more potent here.

First: CSc1ccc(S(=O)(=O)N2CCN(c3nc(CC(F)(F)F)no3)CC2)cc1 [Cmpd168, 5-(4-((4-(Methylthio)phenyl)sulfonyl)piperazin-1-yl)-3-(2,2,2-trifluoroethyl)-1,2,4-oxadiazole]
Second: O=S(=O)(c1ccc(OC(F)F)cc1)N1CCN(c2nc(CCC(F)(F)F)no2)CC1 [Cmpd173, 5-(4-((4-(Difluoromethoxy)phenyl)sulfonyl)piperazin-1-yl)-3-(3,3,3-trifluoropropyl)-1,2,4-oxadiazole]
The EC50 of the first is 2.2-fold lower: 0.198 µM for the first, 0.438 µM for the second. The first is the more potent here.

First: CC(=O)Nc1ccc(S(=O)(=O)N2CCN(c3nc(Cc4cccc(F)c4)no3)CC2)cc1 [Cmpd086, N-(4-{4-[3-(3-Fluoro-benzyl)-[1,2,4]oxadiazol-5-yl]-piperazine-1-sulfonyl}-phenyl)-acetamide]
Second: O=S(=O)(c1ccc(F)cc1)N1CCN(c2nc(Cc3cccc(F)c3)no2)CC1 [Cmpd085, 1-(4-Fluoro-benzenesulfonyl)-4-[3-(3-fluoro-benzyl)-[1,2,4]oxadiazol-5-yl]-piperazine]
The EC50 of the first is 2.1-fold higher: 0.522 µM for the first, 0.25 µM for the second.

First: CCOc1ccc(S(=O)(=O)N2CCN(c3nc(Cc4cccc(Cl)c4)no3)CC2)cc1 [Cmpd073, 1-[3-(3-Chloro-benzyl)-[1,2,4]oxadiazol-5-yl]-4-(4-ethoxy-benzenesulfonyl)-piperazine]
Second: O=S(=O)(c1ccc(OC(F)F)cc1)N1CCN(c2nc(Cc3cccc(Cl)c3)no2)CC1 [Cmpd074, 1-[3-(3-Chloro-benzyl)-[1,2,4]oxadiazol-5-yl]-4-(4-difluoromethoxy-benzenesulfonyl)-piperazine]
The EC50 of the first is 3.3-fold higher: 0.033 µM for the first, 0.01 µM for the second.

First: CC(C)Oc1ccc(S(=O)(=O)N2CCN(c3nc(Cc4cccc(F)c4)no3)CC2)cc1 [Cmpd093, 1-[3-(3-Fluoro-benzyl)-[1,2,4]oxadiazol-5-yl]-4-(4-isopropoxy-benzenesulfonyl)-piperazine]
Second: O=S(=O)(c1ccc(OC(F)(F)F)cc1)N1CCN(c2nc(Cc3cccc(F)c3)no2)CC1 [Cmpd087, 1-[3-(3-Fluoro-benzyl)-[1,2,4]oxadiazol-5-yl]-4-(4-trifluoromethoxy-benzenesulfonyl)-piperazine]
The EC50 of the first is 1.5-fold lower: 0.326 µM for the first, 0.497 µM for the second.

First: O=S(=O)(c1cccc(C(F)(F)F)c1)N1CCN(c2nc(Cc3cccc(F)c3)no2)CC1 [Cmpd088, 1-[3-(3-Fluoro-benzyl)-[1,2,4]oxadiazol-5-yl]-4-(3-trifluoromethyl-benzenesulfonyl)-piperazine]
Second: COc1ccc(S(=O)(=O)N2CCN(c3nc(Cc4ccccc4)no3)CC2)cc1 [Cmpd037, 1-(3-Benzyl-[1,2,4]oxadiazol-5-yl)-4-(4-methoxy-benzenesulfonyl)-piperazine]
The EC50 of the first is 610-fold higher: 1.84 µM for the first, 0.003 µM for the second.

Going from `CCCc1noc(N2CCN(S(=O)(=O)c3ccc(OC)cc3)CC2)n1` [Cmpd207, 5-(4-((4-Methoxyphenyl)sulfonyl)piperazin-1-yl)-3-propyl-1,2,4-oxadiazole] to `CCCCc1noc(N2CCN(S(=O)(=O)c3ccc(OC)cc3)CC2)n1` [Cmpd208, 3-Butyl-5-(4-((4-methoxyphenyl)sulfonyl)piperazin-1-yl)-1,2,4-oxadiazole], the EC50 falls from 0.406 µM to 0.098 µM (4.1-fold). The second is the more potent here.

Compared with `CCOc1ccc(S(=O)(=O)N2CCN(c3nc(C(F)(F)c4ccc(F)cc4)no3)CC2)cc1` [Cmpd147, 1-{3-[Difluoro-(4-fluoro-phenyl)-methyl]-[1,2,4]oxadiazol-5-yl}-4-(4-ethoxy-benzenesulfonyl)-piperazine], `CCOc1ccc(S(=O)(=O)N2CCN(c3nc(C(C)(C)c4ccc(F)cc4)no3)CC2)cc1` [Cmpd115, 1-(4-Ethoxy-benzenesulfonyl)-4-{3-[1-(4-fluoro-phenyl)-1-methyl-ethyl]-[1,2,4]oxadiazol-5-yl}-piperazine] is 2.5-fold higher in EC50: 0.022 µM for the first, 0.054 µM for the second. The first is the more potent here.

First: COc1ccc(S(=O)(=O)N2CCN(c3nc(CC4CC4)no3)CC2)cc1 [Cmpd159, 3-(Cyclopropylmethyl)-5-(4-((4-methoxyphenyl)sulfonyl)piperazin-1-yl)-1,2,4-oxadiazole]
Second: CCOc1ccc(S(=O)(=O)N2CCN(c3nc(CC4CC4)no3)CC2)cc1 [Cmpd162, 3-(Cyclopropylmethyl)-5-(4-((4-ethoxyphenyl)sulfonyl)piperazin-1-yl)-1,2,4-oxadiazole]
The EC50 of the first is 2.4-fold lower: 0.095 µM for the first, 0.224 µM for the second. The first is the more potent here.

First: CCOc1ccc(S(=O)(=O)N2CCN(c3nc(C(C)(C)c4cccc(Cl)c4)no3)CC2)cc1 [Cmpd153, 1-{3-[1-(3-Chloro-phenyl)-1-methyl-ethyl]-[1,2,4]oxadiazol-5-yl}-4-(4-ethoxy-benzenesulfonyl)-piperazine]
Second: CCOc1ccc(S(=O)(=O)N2CCN(c3nc(C4(c5ccc(Cl)cc5)CC4)no3)CC2)cc1 [Cmpd139, 1-{3-[1-(4-Chloro-phenyl)-cyclopropyl]-[1,2,4]oxadiazol-5-yl}-4-(4-ethoxy-benzenesulfonyl)-piperazine]
The EC50 of the first is 71-fold lower: 0.005 µM for the first, 0.356 µM for the second.

Compared with `COc1ccc(S(=O)(=O)N2CCN(c3nc(Cc4ccnc(C)c4)no3)CC2)cc1` [Cmpd169, 1-(4-Methoxy-benzenesulfonyl)-4-[3-(2-methyl-pyridin-4-ylmethyl)-[1,2,4]oxadiazol-5-yl]-piperazine], `CCOc1ccc(S(=O)(=O)N2CCN(c3nc(Cc4ccccc4)no3)CC2)cc1` [Cmpd038, 1-(3-Benzyl-[1,2,4]oxadiazol-5-yl)-4-(4-ethoxy-benzenesulfonyl)-piperazine] is 2.6-fold lower in EC50: 0.034 µM for the first, 0.013 µM for the second. The second is the more potent here.

Compared with `COc1ccc(S(=O)(=O)N2CCN(c3nc(C(F)(F)c4ccccc4)no3)CC2)cc1` [Cmpd156, 1-[3-(Difluoro-phenyl-methyl)-[1,2,4]oxadiazol-5-yl]-4-(4-methoxy-benzenesulfonyl)-piperazine], `O=S(=O)(c1ccc(OC(F)F)cc1)N1CCN(c2nc(C3(c4ccc(Cl)cc4)CC3)no2)CC1` [Cmpd140, 1-{3-[1-(4-Chloro-phenyl)-cyclopropyl]-[1,2,4]oxadiazol-5-yl}-4-(4-difluoromethoxy-benzenesulfonyl)-piperazine] is 8.8-fold higher in EC50: 0.005 µM for the first, 0.044 µM for the second.
